In US20250319115A1, “Compositions and Methods for Modulating Cytokines” (Flagship Pioneering Innovations VII, LLC, priority 2022, published 2025):

Legend:
IL-4 signaling pathway = experiment: HEK-Blue IL-4 SEAP reporter assay; assay type: cell-based
Procedure: The effects of putative inhibitors on pro-inflammatory cytokine pathways are assessed using HEK-Blue cells engineered for the detection of bioactive cytokines via activation of JAK/STAT pathways and subsequent expression of the SEAP reporter gene. Cells are treated with their relevant cytokines+/−peptides or control antibodies, and 20 hours after treatment activation of the relevant cytokine receptor is determined via SEAP expression through mixing cell supernatants with a Quanti-Blue colorimetric reagent and measuring optical density at 600 nm.
Reporter lines HEK-Blue TL-4/TL-15/IFN-alpha were cultured in DMEM with GlutaMAX and 10% HI FBS (Gibco). Cells were seeded into black 96-well optical clear flat-bottomed PhenoPlates at densities of 25000 cells/well and 100 uL/well and allowed to rest overnight in a 37 C incubator with 5% CO2. After 24 hours, cells were treated with 10 μL of their relevant cytokines (StemCell Technologies) at the previously determined EC75 for activation (1.164 ng/mL for HEK-Blue IL-4, 2.26 ng/mL for HEK-Blue IL-15, and 0.456 ng/mL for HEK-Blue IFN-alpha), with or without 10 μL of peptides (5 uM final concentration) or control antibodies (1 ug/well). Cells were kept overnight in a 37 C incubator with 5% C02.
20-22 hours after treatment, 20 μL of the cell supernatants were collected and transferred to 96-well white flat opaque-bottom plates (Costar) and each sample was mixed with 180 μL of Quanti-Blue reagent. Colorimetric reactions were allowed to develop in a 37 C incubator with 5% C02 for a certain duration of time (3 hours for HEK-Blue IL-4, 2 hours for HEK-Blue IL-15, and 1 hour for IFN-alpha). Assay plates were then removed from the incubator and the optical density of each well was measured at 600 nm on a GloMax plate reader. Relative activation of the cytokine signaling pathway in question was determined by ratioing the optical density of each sample to the average optical density for the cytokine-only treated cells from the same plate.

[1] = tested on: CD3/CD28 (TransAct) activated PBMCs; experiment: PBMC cytokine release by Cytometric BeadArray, Inhibition format (peptide with anti-CD3/CD28 T-cell activator); assay type: cell-based, human; parameters: key to Inhibition by Analyte: IL-1b / Inhibition by Analyte: IL-2 / Inhibition by Analyte: TNF / Inhibition by Analyte: IP-10 / Inhibition by Analyte: IL-10: X = a hit with significant activation or inhibition of relevant cytokine release; details: peptide applied with anti-CD3/CD28 T-cell activator, 24 hours, supernatant CBA
Procedure: Peripheral Blood Mononuclear Cells were seeded+/−the T-cell activator […] and +/−peptides for 24-48 hours. Cytokines were measured from the supernatant after incubation by CBA Cytometer.
Thawing PBMCs: PBMCs were thawed by pre-warming TexMACS media (Miltenyi Biotech) in 20 ml aliquots-1-50 ml conical per donor. After the media was warmed to 37° C., cells were removed from liquid nitrogen and brought to the tissue culture hood. For each donor, 1 ml of media from the warmed aliquot was added to the frozen vial and mixed up and down. The media plus thawed cells were then added back to the 50 ml conical. This was repeated until all the cells were thawed and added to the 50 ml tube. Continue with other donors if used. Spin cells for 5 min at 400×g. Supernatant was aspirated and cells resuspended at ˜10*10^6 cells/ml (see vial for cell number).
PBMC Plating: Frozen PBMCs from normal, healthy, human volunteers (StemCell Technologies) were thawed and plated at 250,000 cells/well. After PBMCs were thawed and resuspended at […], cells were then counted (Countess III, Thermo Scientific) and adjusted based on counts to […]. Take the number of PBMCs determined by number of wells for the experiment, for example, 10 wells would need 2.5*10^6 cells total or 0.250 ml. The cells needed for the experiment are then transferred to another conical tube. Warmed TexMACS media is added so that the final concentration is 250,000 cells/190 ul media, for example, 10 wells would need 1.9 ml (190 ul×10 wells) of media total minus 0.250 ml of cells (1.9 ml-0.250 ml) or 1.65 ml of media added to the 0.250 ml of cells. Add 190 ul of cells plus media to the 96 well U-bottom plate. Place in incubator until dilutions are made and ready.
Peptide Dilutions: Ideally, all peptides should be at a starting concentration of at least 10 mM, especially for those in DMSO (ATCC) to reach a final concentration of 1 uM (H2O) or 0.5 uM (DMSO). Dilutions of all test articles should be made at 20× the final concentration, for example, a final concentration of 1 uM peptide would need to be made at 20 uM.
Reagent Dilution: Dilutions are made in TexMACS media, enough for 10 ul/well in triplicate (30 ul of a 20×). Activator—CD3/CD28 (TransAct; Miltenyi Biotech) or cytokine will be at 21× and added after the 45-minute incubation with peptides. Be sure to include relevant controls—Positive: TransAct+Cells, Negative: Vehicle+Cells. Dilutions should also be made in a ultra-low binding plate (Corning).
Assay Procedure: Peptide Treatment: Start assay by thawing the cells and plating in a 96 well, U-bottom tissue culture plate (Corning) as described above. Cell plates are placed in a tissue culture incubator (5% CO2, 37° C.). While cells are in the incubator, start making dilutions (optimally 1 hr or less) as described above. Cell plates are removed from the incubator and 10 ul of the 20× dilutions are added to the relevant wells. After the addition of inhibitors, cell plates are placed in the tissue culture incubator for 45 minutes. The plates are removed from the incubator and 10 ul of 21× TransAct is added to the relevant wells*. Plates are then returned to the incubator and incubated for 24 hours. After 24 hours, plates are spun for 5 minutes at 400×g.
* Activation: This assay can be run in two different formats—Activation and Inhibition. The procedure is the same except no TransAct is needed in the peptide wells for Activation. TransAct is only needed in the control wells. The purpose of this procedure is to determine the possible response from peptides alone.
Cytometric BeadArray (CBA): After the spin, supernatants (˜150 ul) are transferred to a new, ultra-low binding U-bottom plate. Supernatants are then frozen at −20° C. until thawed for CBA (BD) to determine levels of human IL-2, TNFα, IL-1b, IP-10, IL-10, and IFNg. CBA was run according to the manufacturers protocol.

[2] = tested on: primary human CD8+ T cells; experiment: T cell activation markers in isolated CD8+ T cells +/- CD3/CD28 (ELISA, CD69 flow cytometry); assay type: cell-based
Procedure: To determine the effect of the Target Protein on T cell activity, the Target Protein, irrelevant proteins, a single amino acid mutant Target Protein and controls were applied to primary human T cells isolated from Peripheral Blood Mononuclear Cells (PBMCs)+/−CD3/CD28. 24 hours later the levels of extra-cellular CD69, IL-2, and TNFalpha (72 hours for IFN-gamma) were evaluated.
Isolation of PBMCfrom Leukopak: The isolation of peripheral blood mononuclear cells (PBMC) from a leukopak sample was conducted using the EasySep™ Direct Human PBMC Isolation Kit (Cat #19654, StemCell Technologies, Vancouver, BC, Canada) following the manufacturer's instructions. A leukopak sample was prepared within a volume range of 125 mL and added to a T-75 cm2 cell culture flask. EDTA was added to the sample to achieve a final concentration of 6 mM. The Isolation Cocktail provided in the kit was added to the sample without vortexing, and the sample was mixed and incubated at room temperature (RT) for 5 minutes. EasySep buffer was added to double the original sample volume, followed by the addition of vortexed RapidSpheres™. The flask was placed into a magnet and incubated at RT for 5 minutes. The cell suspension was carefully pipetted into a new T-75 cm2 flask, and RapidSpheres™ were added to the enriched cells. The flask was placed back into the magnet for a second separation at RT for 5 minutes. Finally, the cell suspension was carefully pipetted into a new tube or centrifuge bottle, and the isolated PBMCs were ready for use.
Isolation of primary human T-cells: Following the isolation of PBMCs, CD8^+ T cells were isolated using the EasySep™ Human CD8^+ T Cell Isolation Kit (Cat #17953, StemCell Technologies, Vancouver, BC, Canada) according to the manufacturer's instructions. The PBMC sample was prepared at a concentration of […] within a volume range of 2 mL and added to a 5 mL polystyrene round-bottom tube. The Isolation Cocktail provided in the kit (50 μL/mL of sample) was added to the sample without vortexing, mixed, and incubated at RT for 5 minutes. RapidSpheres™ were vortexed for 30 seconds to ensure even dispersion and then added to the sample at a concentration of 50 μL/mL of sample. The EasySep buffer was added to top up the sample to a total volume of 2.5 mL, and the sample was mixed by gently pipetting up and down 2-3 times. The tube (without lid) was placed into the magnet and incubated at RT for 3 minutes. After incubation, the magnet was picked up, and in one continuous motion, the magnet and tube were inverted, pouring the enriched cell suspension into a new tube. The isolated CD8^+ T cells were now ready for use.
Peptide treatment: Isolated CD8^+ T cells were plated in a 96-well format plate at a density of 1×10^5 cells per well. […]

[3] = CD8+ T cells, 10 μM, CD3/CD28, 24 hours, ELISA

Substance | inhibitor of the IL-4 signaling pathway (grade in words) (IL-4 signaling pathway; FIG. 9) | Relative activity (compared to cytokine only controls), Cytokine IL-4 (IL-4 signaling pathway; peptide 5 uM, cytokine at EC75, SEAP OD 600 nm) [%] | Inhibition by Analyte: IL-1b [1] | Inhibition by Analyte: IL-2 [1] | Inhibition by Analyte: IP-10 [1] | Inhibition by Analyte: TNF [1] | T cell activation markers in CD8+ T cells (TNFα, IL-2, CD69) ([2]; 10 μM vs scrambled protein, with CD3/CD28 antibody cocktail, 24 hours) | T-cell activation marker IL-2 [2, 3] | T-cell activation marker TNFalpha [2, 3] | T-cell activation marker CD69 ([2]; CD8+ T cells, 10 μM, CD3/CD28, 24 hours, flow cytometry)
SEQ ID NO: 4227: novel peptide capable of inhibiting pro-inflammatory cytokine pathways (LAVFVIIRNLSDYLSFFFPFLLELLAVEEHHAYL; listed as Homo sapiens) | moderate | −50 |  |  |  |  |  |  |  | 
SEQ ID NO: 4524: novel, secreted peptide that enhances T cell activation (LDFIRAFLLLLVASVPGKIGSQNLTAQRPPVATSFLQMESSEPTVRK; listed as Homo sapiens) |  |  | X | X | X | X | increases | significantly up-regulates | significantly up-regulates | significantly up-regulates
